Laboratory results from the NIST ThermoML archive (doi:10.1021/acs.jced.8b00132).
Values joined by “and” are separate entries in the source; they are usually repeats but may differ in a detail not shown here. Equal values may be shown once.

O=C(C(F)(F)C(F)(F)F)C(F)(C(F)(F)F)C(F)(F)F [dodecafluoro-2-methylpentan-3-one]
Conditions	thermal conductivity
329.25 K, 73 kPa, Gas, hot wire	0.0137 W/m/K
329.26 K, 72 kPa, Gas, hot wire	0.01377 W/m/K and 0.01374 W/m/K
329.31 K, 120 kPa, Gas, hot wire	0.01393 W/m/K
329.32 K, 120 kPa, Gas, hot wire	0.01375 W/m/K
329.34 K, 27 kPa, Gas, hot wire	0.01343 W/m/K
329.35 K, 27 kPa, Gas, hot wire	0.01345 W/m/K
329.36 K, 26 kPa, Gas, hot wire	0.01404 W/m/K
329.37 K, 26 kPa, Gas, hot wire	0.01398 W/m/K
329.38 K, 120 kPa, Gas, hot wire	0.01375 W/m/K
329.39 K, 105 kPa, Gas, hot wire	0.01386 W/m/K
329.39 K, 120 kPa, Gas, hot wire	0.01376 W/m/K
329.4 K, 105 kPa, Gas, hot wire	0.01386 W/m/K
329.42 K, 73 kPa, Gas, hot wire	0.01371 W/m/K and 0.01373 W/m/K
329.43 K, 72 kPa, Gas, hot wire	0.01372 W/m/K and 0.01375 W/m/K
329.43 K, 67798 kPa, Liquid, transient hot wire	0.07589 W/m/K
329.43 K, 67830 kPa, Liquid, transient hot wire	0.07595 W/m/K
329.47 K, 120 kPa, Gas, hot wire	0.01394 W/m/K
329.48 K, 120 kPa, Gas, hot wire	0.01386 W/m/K
329.48 K, 57461 kPa, Liquid, transient hot wire	0.0733 W/m/K
329.49 K, 57474 kPa, Liquid, transient hot wire	0.07325 W/m/K
329.5 K, 26 kPa, Gas, hot wire	0.01349 W/m/K
329.51 K, 27 kPa, Gas, hot wire	0.01348 W/m/K
329.52 K, 26 kPa, Gas, hot wire	0.01408 W/m/K
329.53 K, 26 kPa, Gas, hot wire	0.01404 W/m/K
329.56 K, 46607 kPa, Liquid, transient hot wire	0.07024 W/m/K
329.56 K, 46614 kPa, Liquid, transient hot wire	0.07022 W/m/K
329.57 K, 105 kPa, Gas, hot wire	0.01395 W/m/K and 0.01394 W/m/K
329.57 K, 120 kPa, Gas, hot wire	0.01381 W/m/K
329.58 K, 120 kPa, Gas, hot wire	0.01371 W/m/K
329.6 K, 72 kPa, Gas, hot wire	0.01381 W/m/K
329.6 K, 73 kPa, Gas, hot wire	0.01369 W/m/K and 0.01372 W/m/K
329.6 K, 67772 kPa, Liquid, transient hot wire	0.07593 W/m/K
329.6 K, 67790 kPa, Liquid, transient hot wire	0.07593 W/m/K
329.61 K, 72 kPa, Gas, hot wire	0.01376 W/m/K
329.63 K, 36730 kPa, Liquid, transient hot wire	0.06726 W/m/K
329.63 K, 36735 kPa, Liquid, transient hot wire	0.06721 W/m/K
329.65 K, 120 kPa, Gas, hot wire	0.01392 W/m/K
329.66 K, 119 kPa, Gas, hot wire	0.0139 W/m/K
329.66 K, 57448 kPa, Liquid, transient hot wire	0.07322 W/m/K
329.68 K, 27 kPa, Gas, hot wire	0.01357 W/m/K
329.68 K, 27945 kPa, Liquid, transient hot wire	0.06427 W/m/K
329.68 K, 27946 kPa, Liquid, transient hot wire	0.0643 W/m/K
329.68 K, 57441 kPa, Liquid, transient hot wire	0.07323 W/m/K
329.69 K, 27 kPa, Gas, hot wire	0.0135 W/m/K
329.7 K, 26 kPa, Gas, hot wire	0.01403 W/m/K and 0.01401 W/m/K
329.74 K, 20516 kPa, Liquid, transient hot wire	0.0619 W/m/K
329.74 K, 20518 kPa, Liquid, transient hot wire	0.0616 W/m/K
329.74 K, 46598 kPa, Liquid, transient hot wire	0.07033 W/m/K
329.74 K, 46602 kPa, Liquid, transient hot wire	0.07022 W/m/K
329.75 K, 104 kPa, Gas, hot wire	0.01402 W/m/K
329.76 K, 104 kPa, Gas, hot wire	0.01399 W/m/K
329.77 K, 120 kPa, Gas, hot wire	0.01378 W/m/K
329.79 K, 73 kPa, Gas, hot wire	0.01373 W/m/K
329.79 K, 120 kPa, Gas, hot wire	0.01373 W/m/K
329.8 K, 14125 kPa, Liquid, transient hot wire	0.05898 W/m/K
329.8 K, 14126 kPa, Liquid, transient hot wire	0.05901 W/m/K
329.8 K, 67755 kPa, Liquid, transient hot wire	0.07593 W/m/K
329.81 K, 67741 kPa, Liquid, transient hot wire	0.07589 W/m/K
329.82 K, 36726 kPa, Liquid, transient hot wire	0.06718 W/m/K
329.82 K, 36730 kPa, Liquid, transient hot wire	0.0673 W/m/K
329.83 K, 118 kPa, Gas, hot wire	0.01407 W/m/K
329.84 K, 118 kPa, Gas, hot wire	0.01403 W/m/K
329.85 K, 73 kPa, Gas, hot wire	0.01336 W/m/K
329.86 K, 72 kPa, Gas, hot wire	0.01334 W/m/K
329.86 K, 8619 kPa, Liquid, transient hot wire	0.05649 W/m/K
329.86 K, 57414 kPa, Liquid, transient hot wire	0.07321 W/m/K
329.86 K, 57423 kPa, Liquid, transient hot wire	0.07327 W/m/K
329.87 K, 27 kPa, Gas, hot wire	0.01359 W/m/K and 0.01357 W/m/K
329.87 K, 8621 kPa, Liquid, transient hot wire	0.05651 W/m/K
329.87 K, 27941 kPa, Liquid, transient hot wire	0.06427 W/m/K
329.88 K, 27942 kPa, Liquid, transient hot wire	0.06429 W/m/K
329.91 K, 4467 kPa, Liquid, transient hot wire	0.05452 W/m/K
329.91 K, 4470 kPa, Liquid, transient hot wire	0.05445 W/m/K
329.94 K, 26 kPa, Gas, hot wire	0.01354 W/m/K and 0.01352 W/m/K
329.94 K, 20524 kPa, Liquid, transient hot wire	0.06153 W/m/K
329.94 K, 46588 kPa, Liquid, transient hot wire	0.07021 W/m/K
329.94 K, 46601 kPa, Liquid, transient hot wire	0.07018 W/m/K
329.95 K, 20523 kPa, Liquid, transient hot wire	0.06156 W/m/K
329.97 K, 120 kPa, Gas, hot wire	0.01385 W/m/K
329.97 K, 177 kPa, Liquid, transient hot wire	0.05208 W/m/K
329.97 K, 178 kPa, Liquid, transient hot wire	0.05208 W/m/K
329.99 K, 120 kPa, Gas, hot wire	0.01382 W/m/K
329.99 K, 180 kPa, Liquid, transient hot wire	0.05206 W/m/K
329.99 K, 67709 kPa, Liquid, transient hot wire	0.0759 W/m/K
